Measured values reported in patent publication US20150073008A1, “Topical Application of Vinca Alkaloids for the Treatment of Actinic Keratosis” (Merz Pharma GmbH & Co. KGaA, priority 2013, published 2015).
Counter-ions that a name gives are not always drawn. Like-named read-outs stand apart in the source and are kept apart here.

Key:
[1] = tested on: proliferating and non-proliferating cells; assay: Comparative test of cell density as a function of time (normal and high cell density); type: cell-based
SCC-111 cells [2] = assay: cells; conditions: Homo sapiens, read-out: in vitro IC50-value (in SCC-111 cells)
SCC-111 cells [3] = conditions: for DCF-value: after repeating the experiments several times
Stability at pH 5.5 = type: physicochemical
Description: Some topical formulations may have a reduced stability at a temperature of 37° C. and a pH-value of 7 or more, e.g. a pH-value of 7.4.

[4] = tested on: human skin (Leiden epidermal skin); assay: Methylthiazol Tetrazolium-Assay (MTT) skin irritation, in vitro human skin model; type: cell-based; conditions: doses of 100-times the in vitro IC50-values; irritant = metabolic activity of skin model reduced to ≦50%
Description: This leads to the option to apply the vinca-compositions not only to single affected skin lesions (“spots”) but also to larger areas of the skin, e.g. for “field treatment”, and often even >5% (or >10%) of the skin surface (of the individual).

[5] = Dermal absorption study with human skin (Franz diffusion cells, 3H-API); conditions: different concentrations and formulations (cream, liposomes, hydro-tops)
Description: The vinca alkaloids were tested in different concentrations and in different formulations (such as cream, liposomes and hydro-tops).
Skin Preparations: Female human abdominal skins from plastic surgery were used. The subcutaneous fatty tissue was removed from the skin and then frozen at −20° C. with aluminium foil packed for later tests. Before use, skin disks of 18 mm diameter were punched, cleaned with PBS (phosphate buffered saline, pH 7.4, 10 mM) and thaw with the stratum corneum (SC) side up open to the atmosphere and the dermal side bathed with PBS for 2 hrs.
The dermal side of the skin was exposed to the receptor fluid (PBS) and the SC remained in contact with the donor compartment left dry and opened to the atmosphere. The temperature of the water bath was maintained at 37±0.1° C. The receptor solution was continuously stirred at 700 rpm with a small bar magnet placed inside the cell. Ten μl of Hydro-Tops or liposomes or 10 mg of the cream formulation were applied onto the skin's surface and uniformly spread by pipettes or spatula. The spatula was weighted again after the application of the cream to determine the applied dose. This means an application dose of 1 μg API per square cm. Samples (0.7 ml) were taken from the receptor fluid at 3, 6, 12, 18 and 24 hrs after application. At each point, the receptor cell content was replaced by 0.7 ml of fresh PBS solution. Three replicates were used for the studies (same skin preparations)
Tape Stripping: The distribution of API in the stratum corneum was determined by the tape stripping technique. After 24 hours the skin was taken, stretched and mounted with pins on cork discs and covered with aluminium mask with a central hole of 8 mm in diameter. […]
Measurement of 3H-API: The samples (standards, strips and fluids) were mixed with 12 ml Rotiszint eco plus (scintillation cocktail purchased from Carl Roth) and carefully vortexed for at least 1 minute. […] The activity in each sample was determined in a scintillation counter (Tri-Carb 2910TR Liquid Scintillation Analyzer; Perkin Elmer) by a standardized protocol.

Solubility = conditions: pH 6.5
[6] = IC50 in 0% FBS divided by IC50 in 20% FBS, SCC-111 cells
[7] = read-out: in vitro IC50-value (in SCC-111 cells), SCC-111 cells, serum condition not stated

Molecule	IC50 (SCC-111 cells [2]) [nM]	DCF-value (SCC-111 cells [3]; [6])	stability (compound remaining) (Stability at pH 5.5; buffer, 168 h, pH 5.5) [%]	skin irritation rating in MTT assay [4]	dermal absorption (in words) [5]	other results
O=c1[nH]cc(F)c(=O)[nH]1 [Example 5-FU, 5-Fluorouracil]	960	0.73	–	–	–	effect on number of cells at normal (proliferating) and high (non-proliferating) cell density [1]: cells were affected, independent of their proliferation-status
CC[C@]1(O)C[C@H]2CN(CCc3c([nH]c4ccccc34)[C@@](C(=O)OC)(c3cc4c(cc3OC)N(C=O)[C@H]3[C@@](O)(C(=O)OC)[C@H](OC(C)=O)[C@]5(CC)C=CCN6CC[C@]43[C@@H]65)C2)C1 [Vincristine, Vincristine sulfate]	0.92	5.86	99.6	not rated as irritant	good dermal absorption	solubility in water (pH 5.5): 0.57 % by weight
CCC1=C[C@@H]2CN(C1)Cc1c([nH]c3ccccc13)[C@@](C(=O)OC)(c1cc3c(cc1OC)N(C)[C@H]1[C@@](O)(C(=O)OC)[C@H](OC(C)=O)[C@]4(CC)C=CCN5CC[C@]31[C@@H]54)C2 [Vinorelbine]	1.34	6.42	99.5	not rated as irritant	good dermal absorption	solubility (pH 6.5): 0.7%
CC[C@]1(O)C[C@@H]2CN(CCc3c([nH]c4ccccc34)[C@@](C(=O)OC)(c3cc4c(cc3OC)N(C)[C@H]3[C@@](O)(C(N)=O)[C@H](O)[C@]5(CC)C=CCN6CC[C@]43[C@@H]65)C2)C1 [Vindesine, Vindesine sulfate hydrate]	–	11.43	98.8	not rated as irritant	good dermal absorption	DCF-value (differential cytotoxicity factor) from FIGS. 1 and 2 (SCC-111 cells [3]; IC50 in 0% FBS divided by IC50 in 20% FBS, single example experiment): > 10; IC50 (SCC-111 cells [3]; read-out: IC50-value, 0% FBS medium cultivated cells (FIG. 2), SCC-111, 0% FBS (low proliferation), DNA-content, 72 hours): 3.5 nM; IC50 (SCC-111 cells [3]; read-out: IC50-value, 20% FBS medium cultivated cells (FIG. 1), SCC-111, 20% FBS (high proliferation), DNA-content, 72 hours): 0.34 nM; IC50 (SCC-111 cells [3]; [7]): 0.57 nM
COc1cc([C@@H]2c3cc4c(cc3[C@@H](O[C@@H]3O[C@@H]5CO[C@@H](c6cccs6)O[C@H]5[C@H](O)[C@H]3O)[C@H]3COC(=O)[C@H]23)OCO4)cc(OC)c1O [Teniposide]	–	5.76	–	–	–	–
COc1cccc2c1C(=O)c1c(O)c3c(c(O)c1C2=O)C[C@@](O)(C(=O)CO)C[C@@H]3O[C@H]1C[C@H](N)[C@@H](O)[C@H](C)O1 [Epirubicin, Epirubicin HCL]	–	6.05	–	–	–	–
Vinblastine sulfate hydrate	–	19.87	–	not rated as irritant	–	solubility (Solubility): 0.25%; stability (compound remaining) (Stability at pH 5.5; pH 5.5, test for 7 days, 5° C.): 97%; IC50 (SCC-111 cells [3]; [7]): 0.87 nM
